# Like-named read-outs stand apart in the source and are kept apart here.
# Tests used:
# [1] = system: HCVsg 1b(con1)-Rluc replicon; experiment: microbe, parasite or virus in culture; assay type: cell-based, hepatitis C virus genotype 1b (con1); conditions: read-out: EC50 (concentration needed to reduce cellular HCVsg 1b(con1)-Rluc replicon content by 50%)
# [2] = Cell viability assay; assay type: cell-based; conditions: human
# [3] = biological target: full-length NS3 (helicase) (Hepatitis C virus genotype 1a, UniProt P26664); assay type: biochemical
# [4] = system: HCVsg 1b(con1)-Rluc replicon; assay type: cell-based, hepatitis C virus genotype 1b; conditions: combined with HPI; for Interaction with HPI (deviation from additive effects): Prichard & Shipman definitions; for Volume under the synergy plot (difference from Bliss additivity): MacSynergy II, 95% confidence
# [5] = biological target: recombinant full-length NS3 not fused to NS4A (Hepatitis C virus genotype 1a, UniProt P26664); experiment: NS3 depsipeptide cleavage; assay type: biochemical; conditions: in the presence and absence of NS4A
# [6] = system: HCVsg 2a(JFH1) replicon; experiment: Colony formation assay, Huh7.5 cells with HCVsg 2a; assay type: cell-based, hepatitis C virus genotype 2a; conditions: genotype 2a replicon, G418 selection
# [7] = system: scNS4A-NS3 V524A; experiment: NS3 depsipeptide cleavage; assay type: biochemical, hepatitis C virus genotype 1a; conditions: Val524 mutation
# [8] = system: subgenomic dengue virus replicon (DENVsg 2); experiment: Dengue virus subgenomic replicon assay in BHK-21 cells; assay type: cell-based, dengue virus strain 2; conditions: Renilla luciferase-tagged replicon
# [9] = system: HCVsg 1b(con1) replicon harboring the R155K and V36A mutations; conditions: 3 days
# [10] = system: scNS4A-NS3 H528A; experiment: NS3 depsipeptide cleavage; assay type: biochemical, hepatitis C virus genotype 1a
# [11] = system: HCVsg 1b(con1)-Rluc replicon; assay type: cell-based, hepatitis C virus genotype 1b
# [12] = system: scNS4A-NS3 Q526A; experiment: NS3 depsipeptide cleavage; assay type: biochemical, hepatitis C virus genotype 1a
# [13] = system: Huh7.5 cell viability; experiment: Cell viability assay; assay type: cell-based
# [14] = system: HCVsg 1b(con1) replicon harboring R155K; conditions: 3 days
# [15] = system: HCVsg 2a(JFH1) replicon; experiment: HCVsg 2a; assay type: cell-based, hepatitis C virus genotype 2a (JFH1); conditions: Renilla luciferase reporter
# [16] = system: BHK DENV-Rluc cell viability
# [17] = Hepatitis C virus, Huh7.5, 72 h
smiles,measurement,setting,value
CC(C)(C)NC(=O)N[C@H](C(=O)N1C[C@H]2[C@@H]([C@H]1C(=O)NC(CC1CCC1)C(=O)C(N)=O)C2(C)C)C(C)(C)C (some centres unmarked) [Boceprevir],EC50,[1]; [17],0.64 ± 0.1 µM
same,CC50,[2]; replicon-bearing Huh7.5 cells,> 100 µM
same,Inhibition of NS3 in an MBHA,[3],do not inhibit
same,Interaction with HPI (deviation from additive effects),[4],no significant deviations from additive effects
CC(C)(C)OC(=O)N[C@H]1CCCCC/C=C\[C@@H]2C[C@@]2(C(=O)NS(=O)(=O)C2CC2)NC(=O)[C@@H]2C[C@@H](OC(=O)N3Cc4cccc(F)c4C3)CN2C1=O [Danoprevir],EC50,[1]; [17],0.002 ± 0.0005 µM
same,CC50,[2],100 µM
same,Inhibition of NS3 in an MBHA,[3]; full-length NS3,do not inhibit
same,Volume under the synergy plot (difference from Bliss additivity),[4],17 μM^2%
same,Interaction with HPI (deviation from additive effects),[4],"Minor, insignificant synergy"
C=C[C@@H]1C[C@]1(NC(=O)[C@@H]1C[C@@H]2CN1C(=O)[C@H](C(C)(C)C)NC(=O)O[C@@H]1C[C@H]1CCCCCc1nc3ccc(OC)cc3nc1O2)C(=O)NS(=O)(=O)C1CC1 [Grazoprevir],EC50,[1]; [17],0.00076 ± 0.00013 µM
same,CC50,[2]; replicon-bearing Huh7.5 cells,54 ± 5 µM
same,Volume under the synergy plot (difference from Bliss additivity),[4],101 μM^2%
Cc1ccc2nc(-c3ccc4nc(-c5ccc(NC(=O)c6cc(C(F)(F)F)cc(C(F)(F)F)c6)cc5)sc4c3)sc2c1S(=O)(=O)O.N [HPI],Amount needed to inhibit NS3-catalyzed peptide cleavage versus scNS4A-NS3,[5],considerably more HPI was needed
same,Antiviral activity in colony-formation assay,[6],some antiviral activity
same,EC50,"[1]; Huh7.5 cells, 72 hours, relative to DMSO",15 ± 4 µM
same,Effect of mutation on ability to inhibit NS3-catalyzed peptide cleavage,[7],do not affect
same,Antiviral activity on subgenomic dengue virus replicon,[8],no antiviral activity
same,Activity on telaprevir-resistant replicon versus HCVsg 1b(con1) replicon,[9],equally active
same,Effect of substitution on ability to inhibit the NS3 protease,[10],neither the Q526A nor H528A substitutions influenced
same,Change in sensitivity of the cell line to the compound after selection,[11]; incubated with HPI twice as long as 3 weeks (6 weeks),≤ 2 fold
same,Sensitivity of cells that became resistant to telaprevir,"[11]; telaprevir-selected cells, data not shown",retained sensitivity
same,Effect of substitution on ability to inhibit the NS3 protease,[12],neither the Q526A nor H528A substitutions influenced
same,Effect on viability of cells containing HCVsg 1b(con1) or HCVsg 2a(JFH1),[13]; concentrations up to 100 μM,did not affect the viability
same,CC50,"[13]; read-out: CC50 (concentration needed to reduce cell viability by 50%), Huh7.5 cells",> 100 µM
same,Activity on telaprevir-resistant replicon versus HCVsg 1b(con1) replicon,[14],equally active
same,Inhibition of NS3 in an MBHA,[3]; full-length NS3,inhibits full-length NS3 in an MBHA
same,IC50,"[3]; read-out: IC50, molecular beacon-based helicase assay, NS3-catalyzed DNA unwinding, normalized initial velocities",6 ± 2 µM
same,Activity against the HCVsg 2a(JFH1) replicon,[15],little activity
same,"Effect on cell viability, dengue replicon cells",[16],no effect on cell viability
CCC[C@H](NC(=O)[C@@H]1[C@H]2CCC[C@H]2CN1C(=O)[C@@H](NC(=O)[C@@H](NC(=O)c1cnccn1)C1CCCCC1)C(C)(C)C)C(=O)C(=O)NC1CC1 [Telaprevir],EC50,[1]; [17],0.81 ± 0.4 µM
same,Sensitivity of cells that were incubated with HPI,"[11]; HPI-selected cells, data not shown",retained sensitivity
same,Resistance after incubation with the compound,[11]; incubated with telaprevir for 3 weeks,became resistant
same,CC50,[2]; replicon-bearing Huh7.5 cells,45 ± 4 µM
same,Inhibition of NS3 in an MBHA,[3],do not inhibit
same,Interaction with HPI (deviation from additive effects),[4],no significant deviations from additive effects

# Source: PMC4546510 (ACS chemical biology, 2015)
